Experimental data: ChEMBL document CHEMBL1201862, “PubChem BioAssay data set” (2004)
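Step 1: Grow cells in 96-well plates. Step 2: Expose to compound for 48 hours at 5 concentrations. Step 3: Interpolate endpoints linearly; if unreached, use highest concentration. GI50 marks 50% less growth.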 Active and inactive are the calls of the source. Cut-off read from the data, not from the text of the source: active = GI50 up to about 1.1 µM and inactive = higher.

Experiments:
Assay in all cases: inhibition of tumour cell growth, NCI panel, 48 h
[1] = test system: RPMI-8226
[2] = test system: OVCAR-8
[3] = test system: OVCAR-4
[4] = test system: SW-620
[5] = test system: SK-OV-3
[6] = test system: HL-60
[7] = test system: COLO 205
[8] = test system: CAKI-1
[9] = test system: Hs-578T
[10] = test system: SN12C
[11] = test system: SK-MEL-2
[12] = test system: HOP-62
[13] = test system: NCI-H522
[14] = test system: UO-31
[15] = test system: U-251
[16] = test system: NCI-H23
[17] = test system: CCRF-CEM
[18] = test system: A549
[19] = test system: SNB-19
[20] = test system: OVCAR-3

With `O=[N+]([O-])c1ccc2ncccc2c1CCc1c([N+](=O)[O-])ccc2ncccc12` the GI50 [1] was > 100 µM (inactive), the GI50 [2] was > 100 µM (inactive) and the GI50 [3] was > 100 µM (inactive). The GI50 [4] was > 100 µM (inactive), the GI50 [5] was > 100 µM (inactive) and the GI50 [6] was > 100 µM (inactive). For the same compound, the GI50 [7] was > 100 µM (inactive), the GI50 [8] was > 100 µM (inactive) and the GI50 [9] was > 100 µM (inactive). For the same compound, the GI50 [10] was > 100 µM (inactive), the GI50 [11] was > 100 µM (inactive) and the GI50 [12] was > 100 µM (inactive). For the same compound, the GI50 [13] was > 100 µM (inactive), the GI50 [14] was > 100 µM (inactive) and the GI50 [15] was > 100 µM (inactive). The GI50 [16] was > 100 µM (inactive), the GI50 [17] was > 100 µM (inactive) and the GI50 [18] was > 100 µM (inactive). For the same compound, the GI50 [19] was > 100 µM (inactive) and the GI50 [20] was > 100 µM (inactive).
In the case of `CC(C)c1ccc(/C(C(=O)O)=C(\O)C(=O)O)cc1`, the GI50 [1] is reported as > 100 µM (inactive), the GI50 [2] is reported as > 100 µM (inactive) and the GI50 [3] is reported as > 100 µM (inactive). The GI50 [4] was > 100 µM (inactive), the GI50 [5] was > 100 µM (inactive) and the GI50 [6] was > 100 µM (inactive). The GI50 [7] was > 100 µM (inactive), the GI50 [8] was > 100 µM (inactive) and the GI50 [9] was > 100 µM (inactive). The GI50 [10] was > 100 µM (inactive), the GI50 [11] was > 100 µM (inactive) and the GI50 [12] was > 100 µM (inactive). The GI50 [13] was > 100 µM (inactive), the GI50 [14] was > 100 µM (inactive) and the GI50 [15] was > 100 µM (inactive). For the same compound, the GI50 [16] was > 100 µM (inactive), the GI50 [17] was > 100 µM (inactive) and the GI50 [18] was > 100 µM (inactive). For the same compound, the GI50 [19] was > 100 µM (inactive) and the GI50 [20] was > 100 µM (inactive).
With `COc1cc2c(c(OC)c1OC)-c1ccc(SC)c(=O)cc1C(NC(=O)c1ccccc1)CC2` (stereo not given) the GI50 [1] was < 0.01 µM (active), the GI50 [2] was < 0.01 µM (active) and the GI50 [3] was 1.45 µM (inactive). The GI50 [4] was < 0.01 µM (active), the GI50 [5] was 0.027 µM (active) and the GI50 [6] was < 0.01 µM (active). The GI50 [7] was < 0.01 µM (active), the GI50 [8] was < 0.01 µM (active) and the GI50 [9] was < 0.01 µM (active). The GI50 [10] was < 0.01 µM (active), the GI50 [11] was < 0.01 µM (active) and the GI50 [12] was < 0.01 µM (active). For the same compound, the GI50 [13] was < 0.01 µM (active), the GI50 [14] was 0.272 µM (active) and the GI50 [15] was < 0.01 µM (active). For the same compound, the GI50 [16] was 0.0107 µM (active), the GI50 [17] was < 0.01 µM (active) and the GI50 [18] was < 0.01 µM (active). The GI50 [19] was < 0.01 µM (active) and the GI50 [20] was < 0.01 µM (active).
With `O=C(N/N=C/c1ccc2c(c1)CCC2)c1ccccc1O` the GI50 [1] was 32.5 µM (inactive), the GI50 [2] was 25.4 µM (inactive) and the GI50 [3] was 24.8 µM (inactive). The GI50 [4] was 31.1 µM (inactive), the GI50 [5] was 12.1 µM (inactive) and the GI50 [6] was 23.2 µM (inactive). For the same compound, the GI50 [7] was 53.7 µM (inactive), the GI50 [8] was 28.4 µM (inactive) and the GI50 [9] was 22.9 µM (inactive). For the same compound, the GI50 [10] was 23.1 µM (inactive), the GI50 [11] was 23.4 µM (inactive) and the GI50 [12] was 17 µM (inactive). The GI50 [13] was 21.5 µM (inactive), the GI50 [14] was 29 µM (inactive) and the GI50 [15] was 17.7 µM (inactive). For the same compound, the GI50 [16] was 24.2 µM (inactive), the GI50 [17] was 8.71 µM (inactive) and the GI50 [18] was 21.2 µM (inactive). For the same compound, the GI50 [19] was 19.8 µM (inactive) and the GI50 [20] was 16.8 µM (inactive).
With `Clc1ccc(Cl)c(/N=N\c2cc3c4c(c2)CCN4CCC3)c1` the GI50 [1] was > 10 µM (inactive), the GI50 [2] was > 10 µM (inactive) and the GI50 [3] was > 10 µM (inactive). For the same compound, the GI50 [4] was > 10 µM (inactive), the GI50 [5] was > 10 µM (inactive) and the GI50 [6] was > 10 µM (inactive). For the same compound, the GI50 [7] was > 10 µM (inactive), the GI50 [8] was > 10 µM (inactive) and the GI50 [9] was > 10 µM (inactive). The GI50 [10] was > 10 µM (inactive), the GI50 [11] was > 10 µM (inactive) and the GI50 [12] was > 10 µM (inactive). The GI50 [13] was > 10 µM (inactive), the GI50 [14] was > 10 µM (inactive) and the GI50 [15] was > 10 µM (inactive). For the same compound, the GI50 [16] was > 10 µM (inactive), the GI50 [17] was > 10 µM (inactive) and the GI50 [18] was > 10 µM (inactive). For the same compound, the GI50 [19] was > 10 µM (inactive) and the GI50 [20] was > 10 µM (inactive).
For `O=[N+]([O-])c1cc(-c2nc(-c3ccccc3)c(-c3ccccc3)[nH]2)c(O)c([N+](=O)[O-])c1`, the GI50 [1] was 27 µM (inactive), the GI50 [2] was 34 µM (inactive) and the GI50 [3] was 34 µM (inactive). The GI50 [4] was 27.5 µM (inactive), the GI50 [5] was 20.2 µM (inactive) and the GI50 [6] was 25.6 µM (inactive). The GI50 [7] was 21.8 µM (inactive), the GI50 [8] was 27.4 µM (inactive) and the GI50 [9] was 27.4 µM (inactive). The GI50 [10] was 26.5 µM (inactive), the GI50 [11] was 19.9 µM (inactive) and the GI50 [12] was 20.4 µM (inactive). The GI50 [13] was 20.2 µM (inactive), the GI50 [14] was 18.2 µM (inactive) and the GI50 [15] was 14.8 µM (inactive). For the same compound, the GI50 [16] was 16.9 µM (inactive), the GI50 [17] was 25.9 µM (inactive) and the GI50 [18] was 34.4 µM (inactive). The GI50 [19] was 36.9 µM (inactive) and the GI50 [20] was 33 µM (inactive).
For `C=CCN(CCNS(=O)(=O)c1ccc(C)cc1)S(=O)(=O)c1ccc(C)cc1`, the GI50 [1] was 24.6 µM (inactive), the GI50 [2] was 17.3 µM (inactive) and the GI50 [3] was 12.2 µM (inactive). For the same compound, the GI50 [4] was > 82.2 µM (inactive), the GI50 [5] was 12.9 µM (inactive) and the GI50 [6] was 21.9 µM (inactive). The GI50 [7] was > 44.5 µM (inactive), the GI50 [8] was 87.9 µM (inactive) and the GI50 [9] was > 52.4 µM (inactive). The GI50 [10] was > 72.6 µM (inactive), the GI50 [11] was 34 µM (inactive) and the GI50 [12] was 27.9 µM (inactive). The GI50 [13] was 12.9 µM (inactive), the GI50 [14] was > 50.2 µM (inactive) and the GI50 [15] was > 49.5 µM (inactive). The GI50 [16] was > 50.1 µM (inactive), the GI50 [17] was > 55 µM (inactive) and the GI50 [18] was 13.9 µM (inactive). For the same compound, the GI50 [19] was > 76.6 µM (inactive) and the GI50 [20] was 19 µM (inactive).
